Measured values reported in ChEMBL document CHEMBL1201862, “PubChem BioAssay data set” (2004).
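These data come from cells grown in 96-well plates and exposed to compound for 48 hours at five concentrations. Abbreviation: GI50, concentration required for 50% inhibition of growth.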 Activity calls are given as the source filed them. Rule as the data show it: active = GI50 up to about 1.1 µM and inactive = higher.

How the values were obtained:
Assay in all cases: NCI-60 cell line screen, 48 h
[1] = test system: UACC-62
[2] = test system: SNB-19
[3] = test system: SK-OV-3
[4] = test system: HCT-116
[5] = test system: UO-31
[6] = test system: SK-MEL-28
[7] = test system: HT-29
[8] = test system: NCI-H460
[9] = test system: NCI-H226
[10] = test system: OVCAR-3
[11] = test system: OVCAR-8
[12] = test system: PC-3
[13] = test system: 786-0
[14] = test system: NCI/ADR-RES
[15] = test system: SF-295
[16] = test system: SR
[17] = test system: NCI-H23
[18] = test system: Hs-578T
[19] = test system: T47D

SMILES | GI50 [1] | GI50 [2] | GI50 [3] | GI50 [4] | GI50 [5] | GI50 [6] | GI50 [7] | GI50 [8] | GI50 [9] | GI50 [10] | GI50 [11] | GI50 [12] | GI50 [13] | GI50 [14] | GI50 [15] | GI50 [16] | GI50 [17] | GI50 [18] | GI50 [19]
CC(CC(C)(C)[N+](C)(C)C)[N+](C)(C)C (centres undefined) | > 100 µM (inactive) | > 100 µM (inactive) | > 100 µM (inactive) | > 100 µM (inactive) | > 100 µM (inactive) | > 100 µM (inactive) | > 100 µM (inactive) | > 100 µM (inactive) | > 100 µM (inactive) | > 100 µM (inactive) | > 100 µM (inactive) | > 100 µM (inactive) | > 100 µM (inactive) | > 100 µM (inactive) | > 100 µM (inactive) | > 100 µM (inactive) | > 100 µM (inactive) |  | 
Cc1ccc2c(c1)C1(C)OC(CC(N)C1O)O2 (centres undefined) | > 100 µM (inactive) | > 100 µM (inactive) | > 100 µM (inactive) | > 100 µM (inactive) | > 100 µM (inactive) | > 100 µM (inactive) | > 100 µM (inactive) | > 100 µM (inactive) | > 100 µM (inactive) | > 100 µM (inactive) | > 100 µM (inactive) |  | > 100 µM (inactive) |  | > 100 µM (inactive) |  | > 100 µM (inactive) |  | 
c1ccc2c(c1)c(N1CCCCC1)cc1nc3c(cc(N4CCCCC4)c4ccccc43)nc12 | > 100 µM (inactive) | > 100 µM (inactive) | > 100 µM (inactive) | > 100 µM (inactive) | > 100 µM (inactive) | > 100 µM (inactive) | > 100 µM (inactive) | > 100 µM (inactive) | > 100 µM (inactive) | > 100 µM (inactive) | > 100 µM (inactive) | > 100 µM (inactive) | > 100 µM (inactive) | > 100 µM (inactive) | > 100 µM (inactive) | > 100 µM (inactive) | > 100 µM (inactive) |  | 
c1cc(C[S+]2CCCC2)oc1C[S+]1CCCC1 | > 100 µM (inactive) | > 100 µM (inactive) | > 100 µM (inactive) | > 100 µM (inactive) | > 100 µM (inactive) | > 100 µM (inactive) | > 100 µM (inactive) | > 100 µM (inactive) |  | > 100 µM (inactive) | > 100 µM (inactive) | > 100 µM (inactive) | > 100 µM (inactive) | > 100 µM (inactive) | > 100 µM (inactive) |  | > 100 µM (inactive) | > 100 µM (inactive) | > 100 µM (inactive)
CN(C)CCOC1(Cc2ccc(Cl)cc2Cl)CCC(C(C)(C)C)CC1 (centres undefined) | 7.23 µM (inactive) | 2.22 µM (inactive) | 10.5 µM (inactive) | 1.95 µM (inactive) |  | 1.47 µM (inactive) | 1.43 µM (inactive) | < 0.01 µM (active) |  | 2.42 µM (inactive) | 1.63 µM (inactive) | 1.68 µM (inactive) | 1.58 µM (inactive) | 1.47 µM (inactive) | 2.09 µM (inactive) | 0.0266 µM (active) | 1.91 µM (inactive) | 2.4 µM (inactive) | 
Cn1c(=O)oc2cc(C(O)CN3CCN(Cc4ccc5c(c4)OCO5)CC3)ccc21 (centres undefined) | > 100 µM (inactive) | > 100 µM (inactive) | > 100 µM (inactive) | > 100 µM (inactive) | > 100 µM (inactive) | > 100 µM (inactive) | > 100 µM (inactive) | > 100 µM (inactive) | > 100 µM (inactive) | > 100 µM (inactive) | > 100 µM (inactive) | > 100 µM (inactive) | > 100 µM (inactive) | > 100 µM (inactive) | > 100 µM (inactive) | > 100 µM (inactive) | > 100 µM (inactive) |  | > 100 µM (inactive)
COc1ccccc1/C=C/c1c(N)ncnc1Nc1cccc(Cl)c1 | 16.6 µM (inactive) | 20.6 µM (inactive) |  | 23.5 µM (inactive) | 20.6 µM (inactive) | 16.4 µM (inactive) | 17.7 µM (inactive) | 20.7 µM (inactive) | 17.4 µM (inactive) | 25.2 µM (inactive) | 25.4 µM (inactive) | 0.164 µM (active) | 11.9 µM (inactive) |  | 26.2 µM (inactive) | 0.132 µM (active) | 20.8 µM (inactive) | 16.9 µM (inactive) | 40.4 µM (inactive)
CC(C)C(=O)OCC1CCCN2CCCCC12 (centres undefined) | 68.1 µM (inactive) | > 100 µM (inactive) | > 100 µM (inactive) | 57.5 µM (inactive) | 62.7 µM (inactive) | 97.9 µM (inactive) | 30.5 µM (inactive) | 38.7 µM (inactive) | > 100 µM (inactive) | > 100 µM (inactive) | > 100 µM (inactive) | 79.4 µM (inactive) | 64.4 µM (inactive) | > 100 µM (inactive) | > 100 µM (inactive) |  | > 100 µM (inactive) | > 100 µM (inactive) | 
COc1ccc(-n2sc3ncc(-c4ccccc4)cc3c2=O)cc1 | 31 µM (inactive) | 29.4 µM (inactive) | > 100 µM (inactive) | 23.1 µM (inactive) | 21.7 µM (inactive) | 37 µM (inactive) |  | > 100 µM (inactive) | 82.2 µM (inactive) | 20.3 µM (inactive) | 25.5 µM (inactive) | 42.9 µM (inactive) | 18.6 µM (inactive) | 72.9 µM (inactive) | > 100 µM (inactive) |  | 23.3 µM (inactive) |  | > 100 µM (inactive)
CC(C)(C)C(=O)O[C@H]1C=C[C@@H](O)[C@@H]2[C@H]1[C@@H]1C=C[C@H]2C1 | 9.79 µM (inactive) | 70 µM (inactive) | 25.2 µM (inactive) | 29.6 µM (inactive) | 47.9 µM (inactive) | 18.5 µM (inactive) |  | 53.8 µM (inactive) |  | 19.7 µM (inactive) | 19 µM (inactive) |  | 48.5 µM (inactive) | 20.2 µM (inactive) | 44.5 µM (inactive) | 18.9 µM (inactive) | 12.1 µM (inactive) | > 100 µM (inactive) | 24.8 µM (inactive)
COC(=O)c1cc(OCc2cc(OCc3ccc(Br)cc3)cc(OCc3ccc(Br)cc3)c2)cc(OCc2cc(OCc3ccc(Br)cc3)cc(OCc3ccc(Br)cc3)c2)c1 | > 100 µM (inactive) | > 100 µM (inactive) | > 100 µM (inactive) | > 100 µM (inactive) | > 100 µM (inactive) | > 100 µM (inactive) |  | > 100 µM (inactive) | > 100 µM (inactive) | > 100 µM (inactive) |  | > 100 µM (inactive) | > 100 µM (inactive) | > 100 µM (inactive) | > 100 µM (inactive) |  | > 100 µM (inactive) |  | > 100 µM (inactive)
CC1=CC(/C=C(\C)CCCc2ccoc2)C2(OC(=O)C(C)=C2O)[C@H]2C1CC[C@@H]2C (some centres undefined) | 14.4 µM (inactive) | 11.9 µM (inactive) | 26.2 µM (inactive) | 15.6 µM (inactive) | 16.5 µM (inactive) | 27.6 µM (inactive) | 34.3 µM (inactive) |  | 22.7 µM (inactive) | 21.4 µM (inactive) | 28.6 µM (inactive) |  | 14.6 µM (inactive) |  | 20.7 µM (inactive) |  | 20.5 µM (inactive) |  | 
COc1ccccc1N/C(SCc1ccccc1)=C(/C(Cl)=C(Cl)Cl)[N+](=O)[O-] | 48 µM (inactive) | 39.4 µM (inactive) | 46.5 µM (inactive) | 31.3 µM (inactive) | 16.4 µM (inactive) | 15.1 µM (inactive) | 20.3 µM (inactive) | 58.2 µM (inactive) | 35.5 µM (inactive) | 18.7 µM (inactive) | 14.4 µM (inactive) | 31.8 µM (inactive) | 30.5 µM (inactive) | 24.2 µM (inactive) | 25.7 µM (inactive) |  | 16.1 µM (inactive) |  | 26.1 µM (inactive)
O=C1COc2cc3c(cc2N1)SCCC(=O)N3 | > 100 µM (inactive) | > 100 µM (inactive) | > 100 µM (inactive) | > 100 µM (inactive) | > 100 µM (inactive) | > 100 µM (inactive) | > 100 µM (inactive) |  | > 100 µM (inactive) | > 100 µM (inactive) | > 100 µM (inactive) |  | > 100 µM (inactive) |  | > 100 µM (inactive) | > 100 µM (inactive) | > 100 µM (inactive) |  | 
COC(=O)[C@@H](O)[C@]1(C(=O)OC)C2O[C@@H](OC)[C@@H]1CCCCCC[C@H]2O | > 100 µM (inactive) | > 100 µM (inactive) | > 100 µM (inactive) | > 100 µM (inactive) | > 100 µM (inactive) | > 100 µM (inactive) | > 100 µM (inactive) | > 100 µM (inactive) | > 100 µM (inactive) | > 100 µM (inactive) | > 100 µM (inactive) | > 100 µM (inactive) | > 100 µM (inactive) | > 100 µM (inactive) | > 100 µM (inactive) | > 100 µM (inactive) | > 100 µM (inactive) | > 100 µM (inactive) | 
CC(C)(C)[Si](C)(C)OCC1OC(n2ccc(=O)[nH]c2=O)C(O[Si](C)(C)C(C)(C)C)[C@]12O[C@@H]2CO (some centres undefined) | 16.3 µM (inactive) | 10.3 µM (inactive) | 15.6 µM (inactive) | 11.3 µM (inactive) | 8.85 µM (inactive) | 15.9 µM (inactive) | 10.6 µM (inactive) | 14 µM (inactive) | 13.8 µM (inactive) | 14.9 µM (inactive) | 29 µM (inactive) | 4.58 µM (inactive) | 18.2 µM (inactive) | 17.4 µM (inactive) | 10.3 µM (inactive) | 3.61 µM (inactive) | 14.1 µM (inactive) |  | 
